A short description of this data set: Maximal solubility of the synthetic peptides in water and in DMSO (sheet Peptide_mixes). To be noted: for max solve (DMSO): in DMSO, number in brackets in the cell; for max solve water: in water, number before the bracket in the cell. The class given is physicochemical. From the text:
Supplement elife-90674-supp3.xlsx, sheet "Peptide_mixes"

Residues, ends and D or L forms follow the SMILES beside them. No end group written: not given here.

For the compound `C[C@@H](O)[C@H](NC(=O)[C@H](Cc1c[nH]cn1)NC(=O)[C@H](Cc1ccccc1)NC(=O)[C@H](Cc1ccc(O)cc1)NC(=O)[C@@H]1CCCN1C(=O)[C@@H]1CCC(=O)N1)C(=O)N[C@@H](CC(=O)O)C(=O)N[C@@H](CC(N)=O)C(=O)N[C@@H](CO)C(=O)N1CCC[C@H]1C(=O)N[C@@H](CC(N)=O)C(=O)N[C@@H](CCCNC(=N)N)C(=O)N[C@@H](Cc1ccccc1)C(N)=O` [NRFa] (HELM PEPTIDE1{[Glp].P.Y.F.H.T.D.N.S.P.N.R.F.[am]}$$$$V2.0), the “max solve (DMSO)” value is 5 (5) mg/ml and the max solve water was 5 (5) mg/ml.

On to `CSCC[C@H](NC(=O)[C@H](CC(N)=O)NC(=O)[C@@H]1CCCN1C(=O)[C@H](CCSC)NC(=O)[C@@H]1CCC(=O)N1)C(=O)N[C@H](C(=O)N1CCC[C@H]1C(=O)N[C@@H](Cc1ccccc1)C(=O)N[C@@H](Cc1c[nH]cn1)C(N)=O)C(C)C` [PFHa] (HELM PEPTIDE1{[Glp].M.P.N.M.V.P.F.H.[am]}$$$$V2.0), for which the “max solve (DMSO)” value turned out to be 10 mg/mL and the max solve water stood at 0 mg/mL.

For the compound `N=C(N)NCCC[C@H](NC(=O)[C@@H]1CCCN1C(=O)CN)C(=O)NCC(N)=O` [PRGa] (H-GPRG-NH2), the “max solve (DMSO)” value is 10 (10) mg/ml and the max solve water is reported as 10 (10) mg/ml.

As to `N=C(N)NCCC[C@H](NC(=O)CNC(=O)[C@@H]1CCC(=O)N1)C(=O)N[C@@H](Cc1ccccc1)C(N)=O` [QGRFa] (HELM PEPTIDE1{[Glp].G.R.F.[am]}$$$$V2.0), the “max solve (DMSO)” value stood at 10 mg/mL and the max solve water was 5 mg/mL.

As for `CC[C@H](C)[C@H](NC(=O)[C@@H]1CCC(=O)N1)C(=O)N[C@H](C(=O)N[C@@H](CCCNC(=N)N)C(=O)N[C@@H](Cc1ccccc1)C(N)=O)[C@@H](C)O` [RFa0] (HELM PEPTIDE1{[Glp].I.T.R.F.[am]}$$$$V2.0), the “max solve (DMSO)” value is reported as 5 (5) mg/ml and the max solve water is 5 (5) mg/ml.

On to `N=C(N)NCCC[C@H](NC(=O)CNC(=O)[C@H](CCC(N)=O)NC(=O)[C@H](CC(=O)O)NC(=O)[C@H](CCC(=O)O)NC(=O)[C@H](CCCNC(=N)N)NC(=O)CNC(=O)[C@H](Cc1ccccc1)NC(=O)[C@H](CCCNC(=N)N)NC(=O)CNC(=O)[C@@H]1CCC(=O)N1)C(=O)N[C@@H](Cc1ccccc1)C(N)=O` [RFa1] (HELM PEPTIDE1{[Glp].G.R.F.G.R.E.D.Q.G.R.F.[am]}$$$$V2.0), for which the “max solve (DMSO)” value is 10 mg/mL and the max solve water came to 5 mg/mL.

In the case of `CC[C@H](C)[C@H](NC(=O)[C@H](CC[S+](C)[O-])NC(=O)[C@@H]1CCCN1C(=O)[C@@H]1CCCN1C(=O)CN)C(=O)N[C@@H](CCCCN)C(=O)N[C@H](C(=O)N1CCC[C@H]1C(=O)N[C@H](C(=O)N[C@@H](CCCNC(=N)N)C(=O)N[C@@H](Cc1c[nH]cn1)C(N)=O)C(C)C)[C@@H](C)CC` (some centres unmarked) [RHa2] (HELM PEPTIDE1{G.P.P.[CS(=O)CC[C@H](N[*:1])C(=O)[*:2]].I.K.I.P.V.R.H.[am]}$$$$V2.0), the “max solve (DMSO)” value was 10 mg/mL and the max solve water stood at 5 mg/mL.

For `CC(C)C[C@H](NC(=O)[C@H](Cc1ccc(O)cc1)NC(=O)[C@@H]1CCC(=O)N1)C(=O)N[C@@H](CC(=O)O)C(=O)N1CCC[C@H]1C(=O)N[C@@H](CCCNC(=N)N)C(=O)N1CCC[C@H]1C(N)=O` [RHa5] (HELM PEPTIDE1{[Glp].Y.L.D.P.R.P.[am]}$$$$V2.0), the “max solve (DMSO)” value worked out at 15 mg/mL and the max solve water stood at 10 mg/mL.

For the compound `CC(C)C[C@H](NC(=O)[C@H](Cc1ccccc1)NC(=O)[C@H](C)NC(=O)[C@H](CC(=O)O)NC(=O)[C@@H]1CCC(=O)N1)C(=O)N1CCC[C@H]1C(=O)N[C@@H](CCCCN)C(=O)N1CCC[C@H]1C(=O)N[C@@H](CCCNC(=N)N)C(=O)N1CCC[C@H]1C(N)=O` [RPa1] (HELM PEPTIDE1{[Glp].D.A.F.L.P.K.P.R.P.[am]}$$$$V2.0), the “max solve (DMSO)” value is 10 (10) mg/ml and the max solve water is 10 (10) mg/ml.

For the compound `CC[C@H](C)[C@H](NC(=O)[C@@H]1CCCN1C(=O)[C@@H](NC(=O)[C@H](CCCNC(=N)N)NC(=O)[C@H](Cc1ccccc1)NC(=O)[C@@H]1CCCN1C(=O)[C@@H]1CCCN1C(=O)[C@@H]1CCC(=O)N1)[C@@H](C)CC)C(N)=O` [pIPIa] (HELM PEPTIDE1{[Glp].P.P.F.R.I.P.I.[am]}$$$$V2.0), the “max solve (DMSO)” value was determined as 10 mg/mL and the max solve water worked out at 0 mg/mL.

APGLW-NH2 [GLWa4]: the “max solve (DMSO)” value is given as 10 (10) mg/ml and the max solve water is listed as 10 (10) mg/ml.

As for APPGNGEGEAGFIPWFS-NH2 [WFSa], the “max solve (DMSO)” value stood at 2 mg/mL and the max solve water came out at 0 mg/mL.

Turning to APRGGRDAPRG-NH2 [PRGa5], the “max solve (DMSO)” value was 10 (10) mg/ml and the max solve water was 10 (10) mg/ml.

Consider APRGGRSLLDLLAAPRG-NH2 [PRGa1], for which the “max solve (DMSO)” value is on record as 10 (10) mg/ml and the max solve water was 10 (10) mg/ml.

Consider DSSPPQW [QW2], for which the “max solve (DMSO)” value is 10 mg/mL and the max solve water came out at 5 mg/mL.

In the case of EIQPGNMKVWSDPF [PNX14], the “max solve (DMSO)” value is 10 mg/mL and the max solve water worked out at 5 mg/mL.

Take FPPGFHRP-NH2 [HRPa]: the “max solve (DMSO)” value was 10 mg/mL and the max solve water was determined as 5 mg/mL.

With GPPGLW-NH2 [GLWa3], the “max solve (DMSO)” value stood at 10 mg/mL and the max solve water was 5 mg/mL.

For GPPMIKIPVRH-NH2 [VRHa], the “max solve (DMSO)” value is given as 10 (10) mg/ml and the max solve water is 10 (10) mg/ml.

In the case of GPPPIYLPVRP-NH2 [RHa3], the “max solve (DMSO)” value is given as 10 (10) mg/ml and the max solve water is 10 (10) mg/ml.

On to GPPQGLRW-NH2 [LRWa3], for which the “max solve (DMSO)” value was 5 (5) mg/ml and the max solve water was 5 (5) mg/ml.

Turning to GPRGGRATEFGPRG-NH2 [PRGa3], the “max solve (DMSO)” value is 10 (10) mg/ml and the max solve water was 10 (10) mg/ml.

In the case of GPRGGREVNLEGPRG-NH2 [PRGa2], the “max solve (DMSO)” value is on record as 5 (5) mg/ml and the max solve water was 5 (5) mg/ml.

As to GPRGGRSYDGPRG-NH2 [PRGa4], the “max solve (DMSO)” value came out at 10 mg/mL and the max solve water amounted to 5 mg/mL.

As for GYYRDNIQETRQYLDPRP-NH2 [RHa4], the “max solve (DMSO)” value was 10 mg/mL and the max solve water amounted to 5 mg/mL.

On to IPPQGFRFSQW-NH2 [QWa], for which the “max solve (DMSO)” value worked out at 10 mg/mL and the max solve water is 0 mg/mL.

Turning to IPPQGLRFNQW-NH2 [QWa2], the “max solve (DMSO)” value is 10 mg/mL and the max solve water is 5 mg/mL.

On to KGIKQEEIQPGNMKVWSDPF [PNX20], for which the “max solve (DMSO)” value worked out at 10 mg/mL and the max solve water stood at 5 mg/mL.

With LPPRFGGQI-NH2 [QIa], the “max solve (DMSO)” value is 10 mg/mL and the max solve water amounted to 5 mg/mL.

On to MPEQDANPQTRFD-NH2 [RFa2], for which the “max solve (DMSO)” value amounted to 10 mg/mL and the max solve water is 5 mg/mL.

Turning to NPPIDLGPAYFHIR-NH2 [HIRa5], the “max solve (DMSO)” value was 10 mg/mL and the max solve water is 5 mg/mL.

With NPPQPPFRIPI-NH2 [IPIa], the “max solve (DMSO)” value was 10 mg/mL and the max solve water came to 5 mg/mL.

Regarding QPGNMKVWSDPF [PNX12], the “max solve (DMSO)” value worked out at 5 mg/mL and the max solve water worked out at 0 mg/mL.

For the compound RSNRVVIHTGANPTMAPLRIPF-NH2 [IPFa], the “max solve (DMSO)” value is 10 mg/mL and the max solve water was found to be 5 mg/mL.

With SPKPPGLW-NH2 [GLWa5], the “max solve (DMSO)” value is 10 (10) mg/ml and the max solve water is reported as 10 (10) mg/ml.

As for SPPQWKLDSSPPQW [QW3], the “max solve (DMSO)” value amounted to 10 mg/mL and the max solve water came out at 5 mg/mL.

In the case of SPWSCSLRP-NH2 [LRPa1], the “max solve (DMSO)” value is on record as 10 (10) mg/ml and the max solve water is 10 (10) mg/ml.

As to SPWSYSLRP-NH2 [LRPa2], the “max solve (DMSO)” value is reported as 10 (10) mg/ml and the max solve water is given as 10 (10) mg/ml.

As for TPPQW [QW1], the “max solve (DMSO)” value worked out at 10 mg/mL and the max solve water worked out at 2 mg/mL.

Take TPPSNI-NH2 [SNIa]: the “max solve (DMSO)” value was 5 mg/mL and the max solve water was determined as 2 mg/mL.

As to WPPRP-NH2 [FRPa1], the “max solve (DMSO)” value is recorded as 10 (10) mg/ml and the max solve water is recorded as 10 (10) mg/ml.

Take YPPFLELGQPSYFHIR-NH2 [HIRa2]: the “max solve (DMSO)” value turned out to be 10 mg/mL and the max solve water came out at 5 mg/mL.

For YPPLNTV-NH2 [NTVa], the “max solve (DMSO)” value turned out to be 10 mg/mL and the max solve water turned out to be 5 mg/mL.
